Experimental data published in patent publication US12060588B2, “Methods of editing DNA methylation” (Whitehead Institute for Biomedical Research, priority 2016, dated 2024).

Tests used:
[1] = system: off-target binding sites at Vac14, Tenm4, Vrk1 and Gm42619 loci; assay: Bisulfite sequencing of off-target binding sites; type: cell-based, mouse
[2] = system: HEK293T cells; assay: Nuclear-cytoplasmic localization of dCas9-Tet1 constructs with or without gRNA; type: cell-based; conditions: for induction index (nuclear-cytoplasmic ratio with sgRNA normalized to that without sgRNA): HEK293T cells
Description: FIGS. 8A-8E depict a modified CRISPR system for editing 5-cytosine DNA methylation in the mammalian genome. FIG. 8A depicts design of dCas9-effector constructs with nuclear localization signal (NLS) located at different positions, and guide RNA (gRNA) or enhanced guide RNA (E-gRNA) with CMV-driven puro-T2A-Cherry cassette. Ub: human Ubiquitin C promoter. […] FIG. 8C provides comparison of the cellular localization of dCas9-NLS-Tet1 and NLS-dCas9-NLS-Tet1 in HEK293T cells with or without co-expression of a gRNA or E-gNRA targeting the same position in the MyoD locus. […] Co-expression of either gRNA or E-gRNA induced cytoplasm-to-nucleus translocation of these two proteins. Stained in green for dCas9, red for Cherry and blue for DAPI in the merged images. The red dashed lines in the first two panels indicate the cross section of the images for GFP intensity quantification. Scale bar: 10 um. FIG. 8D provides quantification of the nuclear-cytoplasmic ratio of dCas9-NLS-Tet1 and NLS-dCas9-NLS-Tet1 in HEK293T cells in the absence or presence of a gRNA, or an E-gNRA in a Box and Whiskers plot. Average dCas9 intensity of cytoplasmic and nuclear domain along a cross-sectional line as illustrated in C was used for the quantification. “+” denotes mean value of the 20 data points in each group; the boxes indicate the extreme data points (top and bottom bars), the 25-75% interval (box), and the median (central line). […] We reasoned that the combination with the highest induction index would result in the best signal-to-noise ratio for targeted DNA methylation editing.
To achieve targeted editing of DNA methylation, we fused dCas9 with enzymes in the methylation/demethylation pathway (FIG. 1A). […] Both gRNA constructs contain a puro selection cassette and a Cherry fluorescence protein cassette driven by an independent CMV promoter that allows for Fluorescence Activated Cell Sorting (FACS) of gRNA-expressing cells after lentiviral transduction (FIG. 8A). […]

Which results are given for “dCas9-Tet1: catalytically inactive Cas9 (dCas9) fused through NLS to the Tet1 catalytic domain, SEQ ID NO: 159; lentivirally expressed with gRNAs”?
change in methylation level at second and third strongest (off-target) binding sites [1]: only marginal change in methylation level; induction index (nuclear-cytoplasmic ratio with sgRNA normalized to that without sgRNA) ([2]; co-expression of E-gRNA targeting the MyoD locus): 3.22 folds; induction index (nuclear-cytoplasmic ratio with sgRNA normalized to that without sgRNA) ([2]; co-expression of gRNA targeting the MyoD locus): 3.17 folds; cellular localization ([2]; in the absence of sgRNAs, transfected HEK293T cells): predominantly excluded from the nuclear compartment
